Assay results as given in ChEMBL document CHEMBL5252560 (Bioorg Med Chem Lett, 2023).

Columns and labels:
Assay type in all cases: functional, cell-based
A549 = test: Antiproliferative activity against human A549 cells assessed as cell growth inhibition
Y79 = test: Antiproliferative activity against human Y79 cells assessed as cell growth inhibition
HepG2 = test: Antiproliferative activity against human HepG2 cells assessed as cell growth inhibition
U-937 = test: Antiproliferative activity against human U-937 cells assessed as cell growth inhibition

SMILES | IC50 (A549) | IC50 (Y79) | IC50 (HepG2) | IC50 (U-937)
COc1cc(-c2cc(-c3cccc4c3OCO4)on2)cc(OC)c1OC | > 10 µM | > 10 µM | > 10 µM | > 10 µM
COc1cc(C2=NOC(c3ccc4occc4c3)C2)cc(OC)c1OC (stereo not drawn) | > 10 µM | > 10 µM | > 10 µM | > 10 µM
COc1cc(C2=NNC(c3ccc4c(c3)OCCO4)C2)cc(OC)c1OC (stereo not drawn) | > 10 µM | > 10 µM | > 10 µM | > 10 µM
CCn1c2ccccc2c2cc(/C=C/C(=N\O)c3cc(OC)c(OC)c(OC)c3)ccc21 | 1.96 µM | > 10 µM | 0.692 µM | 5.21 µM
COc1cc(C2=NNC(c3cccc4c3OCO4)C2)cc(OC)c1OC (stereo not drawn) | > 10 µM | > 10 µM | > 10 µM | > 10 µM
COc1cc(C2=NNC(c3ccc4c(c3)CCO4)C2)cc(OC)c1OC (stereo not drawn) | > 10 µM | > 10 µM | 6.93 µM | > 10 µM
COc1cc(C2=NNC(c3ccc4sc5ccccc5c4c3)C2)cc(OC)c1OC (stereo not drawn) | > 10 µM | > 10 µM | > 10 µM | > 10 µM
COc1cc(C2=NOC(c3ccc4c(c3)CCO4)C2)cc(OC)c1OC (stereo not drawn) | > 10 µM | > 10 µM | > 10 µM | > 10 µM
COc1cc(C2=NNC(c3c[nH]c4ccccc34)C2)cc(OC)c1OC (stereo not drawn) | 7.13 µM | > 10 µM | 4.35 µM | 3.49 µM
COc1cc(C2=NNC(c3coc4ccccc34)C2)cc(OC)c1OC (stereo not drawn) | > 10 µM | > 10 µM | > 10 µM | > 10 µM
COc1cc(C(/C=C/c2cc3ccccc3s2)=N/O)cc(OC)c1OC | > 10 µM | > 10 µM | 0.493 µM | 0.284 µM
COc1cc(C(/C=C/c2cccc3ccccc23)=N/O)cc(OC)c1OC | > 10 µM | > 10 µM | 0.601 µM | 10 µM
COc1cc(C2=NNC(c3ccc4ccccc4c3)C2)cc(OC)c1OC (stereo not drawn) | > 10 µM | > 10 µM | > 10 µM | > 10 µM
COc1cc(C2=NOC(c3csc4ccccc34)C2)cc(OC)c1OC (stereo not drawn) | > 10 µM | > 10 µM | > 10 µM | > 10 µM
COc1cc(C(/C=C/c2ccc3ccccc3c2)=N/O)cc(OC)c1OC | > 10 µM | > 10 µM | 0.432 µM | > 7.43 µM
COc1cc(C2=NOC(c3ccc4c(c3)OCCO4)C2)cc(OC)c1OC (stereo not drawn) | > 10 µM | > 10 µM | > 10 µM | > 10 µM
COc1cc(C2=NOC(c3ccc4[nH]ccc4c3)C2)cc(OC)c1OC (stereo not drawn) | > 10 µM | > 10 µM | > 10 µM | 5.51 µM
COc1cc(C2=NNC(c3ccc4occc4c3)C2)cc(OC)c1OC (stereo not drawn) | > 10 µM | > 10 µM | > 10 µM | > 10 µM
COc1cc(C2=NOC(c3c[nH]c4ccccc34)C2)cc(OC)c1OC (stereo not drawn) | > 10 µM | > 10 µM | 5.61 µM | 3.38 µM
COc1cc(C2=NOC(c3ccc4ncccc4c3)C2)cc(OC)c1OC (stereo not drawn) | > 10 µM | > 10 µM | > 10 µM | > 10 µM
COc1cc(C2=NNC(c3c[nH]c4cc(Br)ccc34)C2)cc(OC)c1OC (stereo not drawn) | 3.41 µM | > 10 µM | 4.56 µM | 1.24 µM
CCn1c2ccccc2c2cc(C3CC(c4cc(OC)c(OC)c(OC)c4)=NN3)ccc21 (stereo not drawn) | > 10 µM | > 10 µM | 2.32 µM | 1.95 µM
COc1cc(-c2cc(-c3cccc4ccccc34)on2)cc(OC)c1OC | > 10 µM | > 10 µM | > 10 µM | 0.919 µM
COc1cc(C2=NNC(c3cc4ccccc4o3)C2)cc(OC)c1OC (stereo not drawn) | > 10 µM | > 10 µM | > 10 µM | > 10 µM

SMILES | IC50 (A549) | IC50 (Y79) | IC50 (HepG2) | IC50 (U-937)
COc1cc(C2=NNC(c3ccc4ncccc4c3)C2)cc(OC)c1OC (stereo not drawn) | > 10 µM | > 10 µM | > 10 µM | > 10 µM
COc1cc(-c2cc(-c3ccc4c(c3)OCCO4)on2)cc(OC)c1OC | 5.9 µM | > 10 µM | 8.33 µM | 6.29 µM
CCn1c2ccccc2c2cc(C3CC(c4cc(OC)c(OC)c(OC)c4)=NO3)ccc21 (stereo not drawn) | > 10 µM | > 10 µM | 4.37 µM | 1.56 µM
COc1cc(C2=NOC(c3ccc4oc5ccccc5c4c3)C2)cc(OC)c1OC (stereo not drawn) | > 10 µM | > 10 µM | > 10 µM | > 10 µM
COc1cc(C(/C=C/c2ccc3oc4ccccc4c3c2)=N/O)cc(OC)c1OC | > 10 µM | > 10 µM | > 10 µM | 9.31 µM
COc1cc(C2=NNC(c3ccc4cc[nH]c4c3)C2)cc(OC)c1OC (stereo not drawn) | > 10 µM | > 10 µM | > 10 µM | > 10 µM
COc1cc(C2=NOC(c3cccc4c3OCO4)C2)cc(OC)c1OC (stereo not drawn) | > 10 µM | > 10 µM | > 10 µM | > 10 µM
COc1cc(C2=NOC(c3ccc4ccccc4c3)C2)cc(OC)c1OC (stereo not drawn) | > 10 µM | > 10 µM | 6.3 µM | > 10 µM
COC(=O)c1ccc2c(C3CC(c4cc(OC)c(OC)c(OC)c4)=NN3)c[nH]c2c1 (stereo not drawn) | > 10 µM | > 10 µM | 6.35 µM | 7.36 µM
COc1cc(C(/C=C/c2ccc3ncccc3c2)=N/O)cc(OC)c1OC | 0.445 µM | > 10 µM | 0.466 µM | 0.475 µM
COc1cc(C2=NNC(c3ccc4[nH]ccc4c3)C2)cc(OC)c1OC (stereo not drawn) | 2.79 µM | > 10 µM | 3.42 µM | 0.953 µM
COc1cc(C2=NOC(c3cc4ccccc4o3)C2)cc(OC)c1OC (stereo not drawn) | > 10 µM | > 10 µM | > 10 µM | > 10 µM
COc1cc(C2=NNC(c3cccc4ccccc34)C2)cc(OC)c1OC (stereo not drawn) | > 10 µM | > 10 µM | > 10 µM | > 10 µM
COc1cc(C2=NOC(c3cccc4ccccc34)C2)cc(OC)c1OC (stereo not drawn) | > 10 µM | > 10 µM | > 10 µM | > 10 µM
COc1cc(C(/C=C/c2ccc3sc4ccccc4c3c2)=N/O)cc(OC)c1OC | > 10 µM | > 10 µM | 0.743 µM | 1.39 µM
COc1cc(C2=NNC(c3cc4ccccc4s3)C2)cc(OC)c1OC (stereo not drawn) | > 10 µM | > 10 µM | > 10 µM | > 10 µM
COC(=O)c1ccc2c(C3CC(c4cc(OC)c(OC)c(OC)c4)=NO3)c[nH]c2c1 (stereo not drawn) | > 10 µM | > 10 µM | > 10 µM | > 10 µM
COc1cc(C2=NOC(c3cc(OC)c(OC)c(OC)c3)C2)cc(OC)c1OC (stereo not drawn) | > 10 µM | > 10 µM | > 10 µM | > 10 µM
COc1cc(C2=NOC(c3ccc4sc5ccccc5c4c3)C2)cc(OC)c1OC (stereo not drawn) | > 10 µM | > 10 µM | 1.68 µM | 0.233 µM
COc1cc(C2=NNC(c3csc4ccccc34)C2)cc(OC)c1OC (stereo not drawn) | > 10 µM | > 10 µM | > 10 µM | > 10 µM
COc1cc(C2=NNC(c3ccc4oc5ccccc5c4c3)C2)cc(OC)c1OC (stereo not drawn) | > 10 µM | > 10 µM | > 10 µM | > 10 µM
COc1cc(-c2cc(-c3ccc4ccccc4c3)on2)cc(OC)c1OC | > 10 µM | > 10 µM | > 10 µM | > 10 µM
COc1cc(C(/C=C/c2ccc3occc3c2)=N/O)cc(OC)c1OC | > 10 µM | 0.371 µM | 0.179 µM | 0.873 µM
